The values below come from patent publication US11779600B2, “Methods of treating or preventing alzheimer's disease and associated conditions” (CEDARS-SINAI MEDICAL CENTER, priority 2016, dated 2023).

Format in all cases: cell-based, mouse
For test [1], the system named is primary cortical neurons (CN). As to the kind of experiment: Synaptic toxicity of Aβ1-42 assemblies in primary cortical neurons. The conditions noted are these: for reduction in co-localized VGluT1/PSD95+ puncta number: 250 nM Aβ assemblies, 12 hours, vs CN in medium alone (FIG. 1D); for decrease of co-localized VGluT1/PSD95+ puncta synaptic number: overnight exposure (FIG. 2E). Here is the method:
Initially, synaptic toxicity induced by stable, structurally defined fAβ1-42 and oAβ1-42 forms in primary cortical neurons (CN) was tested. Neurons were incubated for 12 hours with 250 nM of Aβ assemblies or with medium only (vehicle) during day 8 of culture. An extensive loss of pre- and post-synaptic (VGluT1 & PSD-95, respectively) area and number, induced by both f/oAβ1-42 forms, was clearly detected (FIG. 1A-C). Synaptic density quantification indicated a significant 50% reduction in co-localized VGluT1/PSD95^+ puncta number following fAβ1-42. Moreover, we detected a 70% decrease in puncta number by oAβ1-42 when compared with CN in medium alone (FIG. 1D; p<0.0001). […] Next, Aβ-induced neuritic retraction was assessed. CN were immunolabeled with anti-Tuj1 and the total neuritic length per neuron was precisely quantified (FIG. 2A-D). Overnight incubation of f/oAβ1-42 led to a massive neuritic retraction compared with control CN group (FIG. 2B vs. 2A). Whether untreated- and GA-treated BM-derived MΦ (CD68^+ cells) could prevent synaptic and neuritic loss was tested next. Primary CN and MΦ were co-cultured for 48 h and introduced Aβ1-42 forms during the last 12 hours of co-culture. […] Quantitative analysis of co-localized VGluT1/PSD95^+ puncta synaptic number confirmed decreases of 32% and 65% after overnight exposure to fAβ1-42 or oAβ1-42, respectively (FIG. 2E). […] The in vivo effects of Aβ accumulation on synaptopathy and possible synaptic rescue by GA immunization or grafted BM-CD115^+ Mo was assessed. Pre- and post-synaptic alterations in coronal brain sections of 13m old AD^+(ADtg) mice that received these immune-modulation interventions were quantified (FIG. 3A-D). High magnification z-stack images obtained from 19 predefined areas in hippocampus and entorhinal cortex were captured in respective Bregma regions (FIG. 3A-D).
P1 neurons are prepared as previously reported. Briefly, cortical neurons (CN) are obtained from 1 day old neonatal mice, dissociated, resuspended and plated in 24-well culture plate at 5×10^4/ml cells. BM-MΦ are obtained as described herein. In short, mononuclear enriched BM-derived cells are isolated from C57BL/6 mice and differentiated into MΦ for 7 days. […] Cultures are processed for quantification of synaptic density and neuritic length. […] Microphotographs are shot using a Carl Zeiss ApoTome-equipped Axio Imager ZI fluorescence microscope. Synaptic puncta number and synaptic immunoreactive area are quantified with Puncta Analyzer. Total neurite length is measured using NeuriteTracer. At least 3 coverslips, 36 images and 150 neurons for each condition are analyzed. Average puncta number, synaptic area per image or per neuron will be calculated. […] In brief, on day 9 of culture, spontaneous network activity of CN is recorded for 60 min to gain baseline. […]

For test [2], the system named is bone marrow-derived macrophages (MΦ^BM). Nature of the test: Fibrillar Aβ1-42 phagocytosis assay in bone marrow-derived macrophages. The conditions noted are these: 24 hours treatment, then fAβ1-42 for 30 min; quantitative ICC (FIG. 16E). The procedure: Lyophilized non-fluoro amyloid-β1-42 peptide (#20276; Anaspec) was initially monomerized by dissolving it in ice-cold HFIP (hexafluoroisopropanol) (#52512; Sigma) to a final concentration of 1 mM and then aliquoted in sterile siliconized microcentrifuge tubes. The HFIP was first evaporated while in the sterile hood and then under vacuum conditions in a SpeedVac for 2 h to remove any trace of HFIP; the peptide film was stored at −20° C. until use. To induce fibril formation, fluoro (HiLyte647; #64161; Anaspec) and non-fluoro amyloid-β1-42 films were resuspended in media to which 10% of sterile NaOH 60 mM was first added and the media were vortexed for 30 s. Then, a sterile 45% H2O and a sterile 45% solution of 20 mM NaH2PO4+Na2HPO4 (pH 7.4) were added, and the media were vortexed again and incubated on a shaker for 2 weeks at 37° C. Pre-formed amyloid-β1-42 fibrils were then sonicated for 60 s and diluted to 100 nM using the same media prior to the phagocytosis assay.
To test amyloid-β phagocytosis by macrophage, in repeated experiments monocytes were isolated from the bone marrow of wild-type mice (n=18 mice) and differentiated into macro-phage by 7-day cultivation in complete RPMI-1640 medium (#21870; Life Technologies) with 10% serum and 20 ng/ml MCSF (#315-02; PeproTech). Bone marrow-derived macrophages (MΦBM) were generated from femurs and tibiae cultured for 6-7 days in complete RPMI 1640 medium (Life Technologies) with 10% FBS, 100 U/ml penicillin, 100 μg/ml streptomycin, 2 mM L-glutamine and 20 ng/ml MCSF (PeproTech). Primary cultures of macrophage were then plated at 1.2×10^5 cells per well (3-4 wells for each condition) in 24-well tissue-culture plates on glass cover-slips overnight. Next, macrophages were either treated with 30 μg/ml GA (Copaxone®; TEVA Neuroscience), Brefeldin A (BFA; Sigma, 1X), or 10 μM Minocycline (Sigma) for the duration of 1, 3, or 24 h, or not treated (control group). Before addition of fibrillar amyloid-β1-42, the cells were chilled in a 4° C. ice bath for 5 min; immediately after addition of the preformed fibrillar amyloid-β1-42 (100 nM), the plates were centrifuged at 515g in 25° C. followed by incubation at 37° C. for 30 or 60 min. The cells were then rinsed with amyloid-β-free medium to remove non-incorporated amyloid-β and later washed twice with PBS. Methanol (99.8%) at −20° C. for 20 min or 4% paraformaldehyde at room temperature for 12 min was used for fixation of the cells followed by repeated washes with PBS. […] The fluorescent signal and its total area were determined and quantified by the conversion of individual images to greyscale and standardizing to baseline using histogram-based thresholds with NIH ImageJ software. […]

The subject of test [3] is iNOS. Nature of the test: iNOS expression in macrophages by quantitative ICC. The following applies: 24 hours treatment, then fAβ1-42 for 30 min; quantitative ICC (FIG. 16D). The procedure:
To test amyloid-β phagocytosis by macrophage, in repeated experiments monocytes were isolated from the bone marrow of wild-type mice (n=18 mice) and differentiated into macro-phage by 7-day cultivation in complete RPMI-1640 medium (#21870; Life Technologies) with 10% serum and 20 ng/ml MCSF (#315-02; PeproTech). Bone marrow-derived macrophages (MΦBM) were generated from femurs and tibiae cultured for 6-7 days in complete RPMI 1640 medium (Life Technologies) with 10% FBS, 100 U/ml penicillin, 100 μg/ml streptomycin, 2 mM L-glutamine and 20 ng/ml MCSF (PeproTech). Primary cultures of macrophage were then plated at 1.2×10^5 cells per well (3-4 wells for each condition) in 24-well tissue-culture plates on glass cover-slips overnight. […] The fluorescent signal and its total area were determined and quantified by the conversion of individual images to greyscale and standardizing to baseline using histogram-based thresholds with NIH ImageJ software. […]
The expression of inducible nitric oxide synthase (iNOS), a hallmark of the proinflammatory M1 macrophage phenotype, in different treatment groups was assessed next (FIG. 16C-16D). […] Quantitative ICC assays confirmed a significant ˜1.3-fold increase in iNOS expression by minocycline-treated macrophages, and a substantial 48% reduction in Aβ^1-42 phagocytosis. […]

Consider “oAβ1-42: stabilized oligomeric amyloid-β1-42 assemblies”, for which, in test [1], the “reduction in co-localized VGluT1/PSD95+ puncta number” value amounted to 70% and the “decrease of co-localized VGluT1/PSD95+ puncta synaptic number” value was 65%.
Regarding `CN(C)c1ccc(O)c2c1C[C@H]1C[C@H]3[C@H](N(C)C)C(O)=C(C(N)=O)C(=O)[C@@]3(O)C(O)=C1C2=O` [minocycline, Minocycline], in test [2], the “reduction in Aβ1-42 phagocytosis” value amounted to 48%. For the same molecule, in test [3], the “increase in iNOS expression” value is recorded as approximately 1.3 fold.
As to “fAβ1-42: pre-formed fibrils of amyloid-β1-42 peptide”, in test [1], the “reduction in co-localized VGluT1/PSD95+ puncta number” value was 50% and the “decrease of co-localized VGluT1/PSD95+ puncta synaptic number” value is listed as 32%.
